Laboratory results published in patent publication US20240343733A1, “COMPOUNDS FOR TARGETING DEGRADATION OF IRAK4 PROTEINS” (BIOGEN MA INC., priority 2021, published 2024).

Assays:
IKZF1 = biological target: T1, IKZF1 (Homo sapiens, UniProt Q13422); test: IKZF1 Degradation Assay, HiBiT Method; format: cell-based; conditions: NCIH929 cells expressing HiBiT-tagged IKZF1, 6 hours, top concentration 10 μM
T1 construct: endogenously expressing IKZF1 with HiBiT fusion tag via CRISPR
Experimental: Assay 2. IKZF1 Degradation Assay, HiBiT Method
Selected compounds of this disclosure were tested in an IKZF1 degradation assay using the HiBiT Method.
RPMI no-phenol red medium and fetal bovine serum (FBS) were purchased from Gibco (Grand Island, NY, USA). Nano-Glo® HiBiT Lytic Assay System was purchased from Promega (Madison, WI, USA). […] Cell culture flasks and 384-well microplates were acquired from VWR (Radnor, PA, USA).
IKZF1 degradation was determined based on quantification of luminescent signal using Nano-Glo® HiBiT Lytic Assay kit. […] NCIH929 cells expressing HiBiT-tagged IKZF1 were added into 384-well plates in RPMI medium containing 10% FBS and 0.05 mM 2-mercaptoethanol at a cell density of 15000 cells per well. The plates were kept at 37° C. with 5% CO2 for 6 hours. Cells treated in the absence of the test compound were the negative control and wells containing media only were the positive control. After 6-hour incubation, Nano-Glo® HiBiT Lytic Assay reagents were added to the designated wells. Luminescence was acquired on EnVision® Multilabel Reader (PerkinElmer, Santa Clara, CA, USA).

IRAK4 = biological target: T2, IRAK4 (Homo sapiens, UniProt Q9NWZ3); test: IRAK4 Degradation Assay, HiBiT Method; format: cell-based; conditions: 293T cells expressing HiBiT-tagged IRAK4, 6 hours
T2 construct: 293Tcells expressing HiBiT-tagged IRAK4 were then added into 384-well plates
T2 sequence (Q9NWZ3 1-460): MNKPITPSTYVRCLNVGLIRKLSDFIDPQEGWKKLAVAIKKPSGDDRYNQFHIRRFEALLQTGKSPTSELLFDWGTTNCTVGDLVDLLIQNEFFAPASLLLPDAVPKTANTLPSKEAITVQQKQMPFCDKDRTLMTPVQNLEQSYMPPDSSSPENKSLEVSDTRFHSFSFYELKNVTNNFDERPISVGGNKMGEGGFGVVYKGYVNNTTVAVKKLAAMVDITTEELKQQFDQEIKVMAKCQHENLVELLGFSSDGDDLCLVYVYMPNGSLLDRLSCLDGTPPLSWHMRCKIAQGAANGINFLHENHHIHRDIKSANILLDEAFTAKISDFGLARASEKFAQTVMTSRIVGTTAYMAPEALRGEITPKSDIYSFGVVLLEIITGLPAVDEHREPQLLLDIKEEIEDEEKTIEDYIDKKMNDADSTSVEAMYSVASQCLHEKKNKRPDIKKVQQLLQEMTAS
How it was run: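 Luminescent read-out with Nano-Glo HiBiT lytic reagent after 6 h compound exposure at 37 °C. Cells were HiBiT-IRAK4 knock-in 293T (C-terminal tag), 10,000 per well. Compounds ran as 11-point half-log dilutions from […] highest dose, duplicate wells; DMSO served as negative control.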

T1 sequence (Q96SW2 whole entry partner, the tested form may be a part): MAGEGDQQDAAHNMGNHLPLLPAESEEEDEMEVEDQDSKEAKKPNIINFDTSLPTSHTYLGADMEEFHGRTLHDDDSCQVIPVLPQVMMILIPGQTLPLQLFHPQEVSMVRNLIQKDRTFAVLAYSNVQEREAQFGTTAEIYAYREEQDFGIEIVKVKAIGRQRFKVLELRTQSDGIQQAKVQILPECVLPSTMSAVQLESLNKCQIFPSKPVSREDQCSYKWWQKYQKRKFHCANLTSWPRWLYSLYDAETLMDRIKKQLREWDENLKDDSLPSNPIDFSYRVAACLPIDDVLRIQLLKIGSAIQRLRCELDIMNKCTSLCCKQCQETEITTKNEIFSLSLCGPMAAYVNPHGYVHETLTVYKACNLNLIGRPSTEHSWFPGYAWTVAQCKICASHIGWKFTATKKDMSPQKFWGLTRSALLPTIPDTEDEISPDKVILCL
T1 sequence (Q16531 whole entry partner, the tested form may be a part): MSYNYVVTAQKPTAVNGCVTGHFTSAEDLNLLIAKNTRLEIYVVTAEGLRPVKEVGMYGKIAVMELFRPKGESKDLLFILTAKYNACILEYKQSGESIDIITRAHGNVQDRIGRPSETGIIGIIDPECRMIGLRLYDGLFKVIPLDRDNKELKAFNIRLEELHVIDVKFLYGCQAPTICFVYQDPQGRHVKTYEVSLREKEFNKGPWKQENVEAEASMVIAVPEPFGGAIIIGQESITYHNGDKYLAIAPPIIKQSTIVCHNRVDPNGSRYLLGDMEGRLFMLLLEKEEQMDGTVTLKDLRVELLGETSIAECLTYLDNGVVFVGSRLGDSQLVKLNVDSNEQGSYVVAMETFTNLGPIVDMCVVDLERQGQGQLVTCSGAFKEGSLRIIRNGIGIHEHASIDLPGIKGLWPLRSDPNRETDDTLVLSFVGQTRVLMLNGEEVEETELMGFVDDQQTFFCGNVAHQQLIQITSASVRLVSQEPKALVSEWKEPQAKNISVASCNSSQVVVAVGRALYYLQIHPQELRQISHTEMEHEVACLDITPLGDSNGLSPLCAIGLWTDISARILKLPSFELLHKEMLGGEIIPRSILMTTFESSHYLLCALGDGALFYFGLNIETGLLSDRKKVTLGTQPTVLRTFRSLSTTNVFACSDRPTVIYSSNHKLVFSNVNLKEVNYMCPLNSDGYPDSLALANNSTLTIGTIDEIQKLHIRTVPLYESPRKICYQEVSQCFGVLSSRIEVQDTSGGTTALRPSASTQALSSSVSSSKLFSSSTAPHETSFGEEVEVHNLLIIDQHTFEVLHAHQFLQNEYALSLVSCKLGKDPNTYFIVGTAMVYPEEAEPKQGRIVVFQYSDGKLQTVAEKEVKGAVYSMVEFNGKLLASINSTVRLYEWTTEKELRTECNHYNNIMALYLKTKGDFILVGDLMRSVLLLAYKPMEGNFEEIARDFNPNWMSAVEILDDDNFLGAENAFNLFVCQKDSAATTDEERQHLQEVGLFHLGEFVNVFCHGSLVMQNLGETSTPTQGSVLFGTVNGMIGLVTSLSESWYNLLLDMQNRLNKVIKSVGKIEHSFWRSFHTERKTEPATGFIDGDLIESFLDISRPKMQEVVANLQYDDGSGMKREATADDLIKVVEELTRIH
T1 sequence (Q13422 whole entry, the tested form may be a part): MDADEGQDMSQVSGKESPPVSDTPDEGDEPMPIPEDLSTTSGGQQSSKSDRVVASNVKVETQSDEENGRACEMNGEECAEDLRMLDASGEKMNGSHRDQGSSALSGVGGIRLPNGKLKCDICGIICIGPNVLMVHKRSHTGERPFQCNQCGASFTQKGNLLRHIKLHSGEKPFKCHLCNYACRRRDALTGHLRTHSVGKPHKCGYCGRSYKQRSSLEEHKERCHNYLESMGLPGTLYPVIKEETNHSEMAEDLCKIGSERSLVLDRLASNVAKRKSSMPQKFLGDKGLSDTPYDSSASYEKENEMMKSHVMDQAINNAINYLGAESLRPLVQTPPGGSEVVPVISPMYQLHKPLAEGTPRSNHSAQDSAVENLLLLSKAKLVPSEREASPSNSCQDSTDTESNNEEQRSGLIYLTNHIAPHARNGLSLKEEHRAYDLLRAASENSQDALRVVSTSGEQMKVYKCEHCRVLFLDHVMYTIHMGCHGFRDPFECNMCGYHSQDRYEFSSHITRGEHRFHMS

| DC50 (IKZF1) | DC50 (IRAK4) | SMILES |
| --- | --- | --- |
| > 10 µM | 0.01 to 0.1 µM | CC(C)Oc1cc2nc(C3CCN(C(=O)CC4CCN(c5ncc(C6CCC(=O)NC6=O)cc5F)CC4)CC3)cn2cc1C(=O)Nc1cnn2cccnc12 (stereo not shown) [Example 162, 2-(1-(2-(1-(5-(2,6-dioxopiperidin-3-yl)-3-fluoropyridin-2-yl)piperidin-4-yl)acetyl)piperidin-4-yl)-7-isopropoxy-N-(pyrazolo[1,5-a]pyrimidin-3-yl)imidazo[1,2-a]pyridine-6-carboxamide] |
| > 10 µM | < 0.01 µM | CC(C)Oc1cc2nn([C@H]3CC[C@H](CN4CCOC[C@H]4Cc4ccc(OC5CCC(=O)NC5=O)cc4)CC3)cc2cc1C(=O)Nc1cccn([C@H]2C[C@H]2F)c1=O (stereo partly drawn) [Example 128, 2-((1R,4S)-4-(((3R)-3-(4-((2,6-dioxopiperidin-3-yl)oxy)benzyl)morpholino)methyl)cyclohexyl)-N-(1-((1S,2R)-2-fluorocyclopropyl)-2-oxo-1,2-dihydropyridin-3-yl)-6-isopropoxy-2H-indazole-5-carboxamide] |
| > 10 µM | 0.01 to 0.1 µM | CC(C)Oc1cc2nc([C@H]3CC[C@H](CN4CCC(c5cc(F)c(C6CCC(=O)NC6=O)cc5F)C(F)(F)C4)CC3)cn2cc1C(=O)Nc1cnn2cccnc12 (stereo partly shown) [Example 53, 2-[4-[[4-[4-(2,6-dioxo-3-piperidyl)-2,5-difluoro-phenyl]-3,3-difluoro-1-piperidyl]methyl]cyclohexyl]-7-isopropoxy-N-pyrazolo[1,5-a]pyrimidin-3-yl-imidazo[1,2-a]pyridine-6-carboxamide] |
| > 10 µM | 0.01 to 0.1 µM | CC(C)Oc1cc2nc([C@H]3CC[C@H](CN4CCC(c5ccc(OC6CCC(=O)NC6=O)cc5)CC4)CC3)cn2cc1C(=O)Nc1cccc(C(F)F)n1 (stereo partly shown) [Example 31, N-[6-(difluoromethyl)-2-pyridyl]-2-[4-[[4-[4-[(2,6-dioxo-3-piperidyl)oxy]phenyl]-1-piperidyl]methyl]cyclohexyl]-7-isopropoxy-imidazo[1,2-a]pyridine-6-carboxamide] |
| > 10 µM | < 0.01 µM | CC(C)Oc1cc2nc(C3CCN(CC(=O)N4CCC(c5ccc(NC6CCC(=O)NC6=O)cc5)CC4)CC3)cn2cc1C(=O)Nc1cnn2cccnc12 (stereo not shown) [Example 104, 2-[1-[2-[4-[4-[(2,6-dioxo-3-piperidyl)amino]phenyl]-1-piperidyl]-2-oxo-ethyl]-4-piperidyl]-7-isopropoxy-N-pyrazolo[1,5-a]pyrimidin-3-yl-imidazo[1,2-a]pyridine-6-carboxamide] |
| > 10 µM | 0.01 to 0.1 µM | CC(C)Oc1cc2nc(C3CCN(CC(=O)N4CCC(c5ccc(C6CCC(=O)NC6=O)cc5)CC4)CC3)cn2cc1C(=O)Nc1cnn2cccnc12 (stereo not shown) [Example 96, 2-[1-[2-[4-[4-(2,6-dioxo-3-piperidyl)phenyl]-1-piperidyl]-2-oxo-ethyl]-4-piperidyl]-7-isopropoxy-N-pyrazolo[1,5-a]pyrimidin-3-yl-imidazo[1,2-a]pyridine-6-carboxamide] |
| > 10 µM | < 0.01 µM | CC(C)Oc1cc2nc([C@H]3CC[C@H](CN4CCC(c5ccc6c(N7CCC(=O)NC7=O)nn(C)c6c5)CC4)CC3)cn2cc1C(=O)Nc1cccc(C(F)F)n1 [Example 38, N-[6-(difluoromethyl)-2-pyridyl]-2-[4-[[4-[3-(2,4-dioxohexahydropyrimidin-1-yl)-1-methyl-indazol-6-yl]-1-piperidyl]methyl]cyclohexyl]-7-isopropoxy-imidazo[1,2-a]pyridine-6-carboxamide] |
| > 10 µM | 0.01 to 0.1 µM | CC(C)Oc1cc2nc(C3CCN(CC(=O)N4CCC(c5ccc(NC6CCC(=O)NC6=O)cc5)CC4)CC3)cn2cc1C(=O)Nc1ccn(C)n1 (stereo not shown) [Example 108, 2-[1-[2-[4-[4-[(2,6-dioxo-3-piperidyl)amino]phenyl]-1-piperidyl]-2-oxo-ethyl]-4-piperidyl]-7-isopropoxy-N-(1-methylpyrazol-3-yl)imidazo[1,2-a]pyridine-6-carboxamide] |
